From patent publication US20240384268A1, “Oligonucleotides” (Hudson Institute of Medical Research, priority 2021, published 2024)
In the oligonucleotide strings, read from the 5' end, every base follows the letter of its sugar. An asterisk marks phosphorothioate; unmarked linkages are phosphodiester. Other units and linkages are bracketed, terminal groups are in braces. A string of capitals states the bases alone. d = 2'-deoxy (DNA); m = 2'-O-methyl

Target: cGAS (Homo sapiens, UniProt Q8N884)
Assay: ISD70-driven IP-10 (and IFN-β) production in THP-1 cells, ELISA
Format: cell-based
Design: endogenous in cells; host or cells: THP-1 (undifferentiated)
Conditions: MOE-modified ASO at 100 nM; averaged IP-10 levels relative to ISD70 condition

Sequence of cGAS (Q8N884 whole entry): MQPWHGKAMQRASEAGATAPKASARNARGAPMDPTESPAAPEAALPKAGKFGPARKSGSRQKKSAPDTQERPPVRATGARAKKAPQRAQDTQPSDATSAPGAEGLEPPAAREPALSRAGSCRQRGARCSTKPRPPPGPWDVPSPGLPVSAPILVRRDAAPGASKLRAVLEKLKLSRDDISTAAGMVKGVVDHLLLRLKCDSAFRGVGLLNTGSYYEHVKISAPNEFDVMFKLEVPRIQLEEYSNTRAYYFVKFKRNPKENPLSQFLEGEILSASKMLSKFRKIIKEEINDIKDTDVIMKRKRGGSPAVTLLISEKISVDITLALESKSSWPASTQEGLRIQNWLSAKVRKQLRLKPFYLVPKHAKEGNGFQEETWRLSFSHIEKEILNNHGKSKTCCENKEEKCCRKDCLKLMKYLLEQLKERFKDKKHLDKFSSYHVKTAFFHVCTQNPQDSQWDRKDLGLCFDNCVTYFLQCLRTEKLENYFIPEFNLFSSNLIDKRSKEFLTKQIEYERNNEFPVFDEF

First: AGTCGTAGTTGCTTCCTAAC (antisense; 2'-MOE modified, pattern not given here) [MB21D1-1181 MOE]
Second: ATGCCATCCACTTGATAGGC (antisense; 2'-MOE modified, pattern not given here) [EGFR-2874 MOE]
The “cGAS 100 nM” value of the first is lower: 0.261 for the first, 0.639 for the second.

First: CGGAGGTCTTGGCTTCGTGG (antisense; 2'-MOE modified, pattern not given here) [MB21D1-525 MOE]
Second: CGGCATCCACCACGTCGTCC (antisense; 2'-MOE modified, pattern not given here) [EGFR-3267 MOE]
The “cGAS 100 nM” value of the first is lower: 0.111 for the first, 0.378 for the second.

Going from “GCCCATCCATGAGGTCCTGG (antisense; 2'-MOE modified, pattern not given here) [CTNN2B-2545 MOE]” to “GCTGACAAAGATTCACTGGT (antisense; 2'-MOE modified, pattern not given here) [HPRT-1353 MOE]”, the “cGAS 100 nM” value falls from 0.592 to 0.335.

Going from “GGGTATCGAAAGAGTCTGGA (antisense; 2'-MOE modified, pattern not given here) [EGFR-3908 MOE]” to “GGTTTTGGCTGGGATCAAGT (antisense; 2'-MOE modified, pattern not given here) [CAMSAP1-4697 MOE]”, the “cGAS 100 nM” value falls from 0.427 to 0.375.

First: GTCCAAGATCAGCAGTCTCA (antisense; 2'-MOE modified, pattern not given here) [CTNN2B-2341 MOE]
Second: TCCGGCCTCGGAAGCTCTCT (antisense; 2'-MOE modified, pattern not given here) [MB21D1-168 MOE]
The “cGAS 100 nM” value of the first is higher: 0.705 for the first, 0.250 for the second.

Compared with “TGGCAGGCTCAGTGATGTCT (antisense; 2'-MOE modified, pattern not given here) [CTNN2B-1642 MOE]”, “TGGGCTGGAATCCGAGTTAT (antisense; 2'-MOE modified, pattern not given here) [EGFR-4705 MOE]” is lower in “cGAS 100 nM” value: 0.605 for the first, 0.433 for the second.

Going from “TGGGTTACGGCTCAGTATGG (antisense; 2'-MOE modified, pattern not given here) [CAMSAP1-4295 MOE]” to “TTTGCACACTTCGTACCCAA (antisense; 2'-MOE modified, pattern not given here) [CAMSAP1-4916 MOE]”, the “cGAS 100 nM” value falls from 0.432 to 0.335.

Same assay, conditions: THP-1; 100 nM ASO overnight, then ISD70 2.5 μg/ml 7-8 h; percentage of ISD70 only

Compared with “mA*mA*mA*mA*mG*A*T*T*A*T*C*T*T*C*T*mU*mU*mU*mA*mA (AAAAGATTATCTTCTUUUAA; sugars from the 5' end m5 d10 m5, all phosphorothioate, methylation of C not given here) [[CDKN2B-AS1]2133]”, “mA*mA*mA*mA*mU*A*A*G*G*G*G*A*A*T*A*mG*mG*mG*mG*mA (mA*mA*mA*mA*mU*dA*dA*dG*dG*dG*dG*dA*dA*dT*dA*mG*mG*mG*mG*mA; antisense) [[CDKN2B-AS1]79]” is higher in “cGAS-100 nM: averaged IP-10 levels relative to ISD70” value: 57.68% for the first, 94.10% for the second.

Going from “mA*mA*mA*mG*mA*T*T*A*T*C*T*T*C*T*T*mU*mU*mA*mA*mU (mA*mA*mA*mG*mA*dT*dT*dA*dT*dC*dT*dT*dC*dT*dT*mU*mU*mA*mA*mU) [[CDKN2B-AS1]2132]” to “mA*mA*mA*mU*mG*T*C*C*T*G*G*C*C*C*T*mC*mA*mC*mU*mG (mA*mA*mA*mU*mG*dT*dC*dC*dT*dG*dG*dC*dC*dC*dT*mC*mA*mC*mU*mG) [[LINC-PINT]148.1]”, the “cGAS-100 nM: averaged IP-10 levels relative to ISD70” value falls from 74.59% to 66.46%.

Going from “mA*mA*mG*mA*mU*T*A*T*C*T*T*C*T*T*T*mU*mA*mA*mU*mU (mA*mA*mG*mA*mU*dT*dA*dT*dC*dT*dT*dC*dT*dT*dT*mU*mA*mA*mU*mU) [[CDKN2B-AS1]2131]” to “mA*mA*mG*mG*mU*G*G*C*C*A*C*A*G*G*C*mA*mA*mC*mG*mU (mA*mA*mG*mG*mU*dG*dG*dC*dC*dA*dC*dA*dG*dG*dC*mA*mA*mC*mG*mU; antisense) [[CDKN2B-AS1]2198]”, the “cGAS-100 nM: averaged IP-10 levels relative to ISD70” value falls from 73.50% to 60.48%.

Compared with “mA*mA*mU*mA*mU*C*T*G*C*T*G*C*C*C*A*mC*mC*mU*mU*mC (mA*mA*mU*mA*mU*dC*dT*dG*dC*dT*dG*dC*dC*dC*dA*mC*mC*mU*mU*mC; antisense) [[CDKN2B-AS1]832]”, “mA*mA*mU*mU*mU*A*A*A*G*C*A*T*G*A*A*mU*mA*mU*mU*mA (mA*mA*mU*mU*mU*dA*dA*dA*dG*dC*dA*dT*dG*dA*dA*mU*mA*mU*mU*mA) [[CDKN2B-AS1]645]” is lower in “cGAS-100 nM: averaged IP-10 levels relative to ISD70” value: 83.17% for the first, 67.63% for the second.

First: mA*mC*mC*mC*mU*T*C*T*C*T*C*T*G*G*T*mC*mC*mC*mA*mU (mA*mC*mC*mC*mU*dT*dC*dT*dC*dT*dC*dT*dG*dG*dT*mC*mC*mC*mA*mU; antisense) [[LINC-PINT]115]
Second: mA*mG*mA*mA*mA*G*A*A*G*C*A*A*A*G*A*mU*mU*mC*mA*mA (AGAAAGAAGCAAAGAUUCAA; sugars from the 5' end m5 d10 m5, all phosphorothioate, methylation of C not given here) [[CDKN2B-AS1]1519]
The “cGAS-100 nM: averaged IP-10 levels relative to ISD70” value of the first is higher: 89.81% for the first, 49.09% for the second.

Compared with “mA*mG*mA*mU*mU*A*T*C*T*T*C*T*T*T*T*mA*mA*mU*mU*mU (AGAUUATCTTCTTTTAAUUU; sugars from the 5' end m5 d10 m5, all phosphorothioate, methylation of C not given here) [[CDKN2B-AS1]2130]”, “mA*mG*mC*mC*mG*A*A*C*A*G*A*A*G*G*A*mG*mC*mG*mU*mC (AGCCGAACAGAAGGAGCGUC; sugars from the 5' end m5 d10 m5, all phosphorothioate, methylation of C not given here) [[LINC-PINT]587 KL]” is lower in “cGAS-100 nM: averaged IP-10 levels relative to ISD70” value: 55.80% for the first, 39.92% for the second.

Compared with “mA*mG*mG*mA*mU*T*A*A*A*A*C*A*G*A*T*mU*mA*mA*mU*mA (mA*mG*mG*mA*mU*dT*dA*dA*dA*dA*dC*dA*dG*dA*dT*mU*mA*mA*mU*mA) [[CDKN2B-AS1] 1775]”, “mA*mG*mG*mC*mC*T*C*C*A*G*T*G*T*C*T*mU*mC*mU*mC*mC (mA*mG*mG*mC*mC*dT*dC*dC*dA*dG*dT*dG*dT*dC*dT*mU*mC*mU*mC*mC; antisense) [[CDKN2B-AS1]2218]” is lower in “cGAS-100 nM: averaged IP-10 levels relative to ISD70” value: 88.54% for the first, 62.85% for the second.

Compared with “mA*mU*mA*mU*mC*T*G*C*T*G*C*C*C*A*C*mC*mU*mU*mC*mU (AUAUCTGCTGCCCACCUUCU; antisense; sugars from the 5' end m5 d10 m5, all phosphorothioate, methylation of C not given here) [[CDKN2B-AS1]831]”, “mA*mU*mG*mA*mC*A*T*T*T*C*G*T*G*G*C*mU*mC*mC*mU*mA (mA*mU*mG*mA*mC*dA*dT*dT*dT*dC*dG*dT*dG*dG*dC*mU*mC*mC*mU*mA) [[LINC-PINT]524.1]” is lower in “cGAS-100 nM: averaged IP-10 levels relative to ISD70” value: 108.01% for the first, 99.38% for the second.

First: mC*mA*mA*mG*mC*C*C*C*A*G*C*G*T*T*C*mC*mU*mC*mC*mG (mC*mA*mA*mG*mC*dC*dC*dC*dA*dG*dC*dG*dT*dT*dC*mC*mU*mC*mC*mG; antisense) [[LINC-PINT]83.1]
Second: mC*mA*mC*mC*mC*T*T*C*T*C*T*C*T*G*G*mU*mC*mC*mC*mA (CACCCTTCTCTCTGGUCCCA; antisense; sugars from the 5' end m5 d10 m5, all phosphorothioate, methylation of C not given here) [[LINC-PINT]116]
The “cGAS-100 nM: averaged IP-10 levels relative to ISD70” value of the first is lower: 77.10% for the first, 97.19% for the second.

Going from “mC*mA*mC*mU*mG*T*A*T*T*T*T*A*T*T*A*mC*mA*mG*mA*mA (mC*mA*mC*mU*mG*dT*dA*dT*dT*dT*dT*dA*dT*dT*dA*mC*mA*mG*mA*mA; antisense) [[LINC-PINT]2990]” to “mC*mA*mG*mG*mC*C*T*C*C*A*G*T*G*T*C*mU*mU*mC*mU*mC (mC*mA*mG*mG*mC*dC*dT*dC*dC*dA*dG*dT*dG*dT*dC*mU*mU*mC*mU*mC; antisense) [[CDKN2B-AS1]2219]”, the “cGAS-100 nM: averaged IP-10 levels relative to ISD70” value rises from 69.47% to 99.38%.

First: mC*mA*mU*mC*mC*C*T*T*C*T*G*C*T*G*C*mC*mA*mA*mG*mC (mC*mA*mU*mC*mC*dC*dT*dT*dC*dT*dG*dC*dT*dG*dC*mC*mA*mA*mG*mC; antisense) [[LINC-PINT]98]
Second: mC*mC*mA*mU*mC*C*C*T*T*C*T*G*C*T*G*mC*mC*mA*mA*mG (mC*mC*mA*mU*mC*dC*dC*dT*dT*dC*dT*dG*dC*dT*dG*mC*mC*mA*mA*mG; antisense) [ILING-PINT199]
The “cGAS-100 nM: averaged IP-10 levels relative to ISD70” value of the first is lower: 70.60% for the first, 85.43% for the second.

Compared with “mC*mC*mA*mU*mG*T*C*C*C*A*G*G*C*C*T*mC*mC*mA*mG*mU (CCAUGTCCCAGGCCTCCAGU; sugars from the 5' end m5 d10 m5, all phosphorothioate, methylation of C not given here) [[CDKN2B-AS1]2227]”, “mC*mC*mC*mU*mA*A*T*G*C*T*T*T*C*C*T*mC*mU*mC*mC*mA (mC*mC*mC*mU*mA*dA*dT*dG*dC*dT*dT*dT*dC*dC*dT*mC*mU*mC*mC*mA; antisense) [[LINC-PINT1877 KL]” is higher in “cGAS-100 nM: averaged IP-10 levels relative to ISD70” value: 36.34% for the first, 89.09% for the second.

First: mC*mC*mC*mU*mU*C*T*C*T*C*T*G*G*T*C*mC*mC*mA*mU*mC (mC*mC*mC*mU*mU*dC*dT*dC*dT*dC*dT*dG*dG*dT*dC*mC*mC*mA*mU*mC; antisense) [[LINC-PINT]114]
Second: mC*mC*mU*mA*mG*A*A*A*G*A*A*G*C*A*A*mA*mG*mA*mU*mU (mC*mC*mU*mA*mG*dA*dA*dA*dG*dA*dA*dG*dC*dA*dA*mA*mG*mA*mU*mU) [[CDKN2B-AS1]1522]
The “cGAS-100 nM: averaged IP-10 levels relative to ISD70” value of the first is higher: 84.38% for the first, 60.90% for the second.

Compared with “mC*mC*mU*mU*mC*T*C*T*C*T*G*GT*C*C*mC*mA*mU*mC*mC (CCUUCTCTCTGGTCCCAUCC; antisense; chemistry not fully specified) [[LINC-PINT]113]”, “mC*mC*mU*mU*mC*T*G*C*T*G*C*C*A*A*G*mC*mC*mC*mC*mA (mC*mC*mU*mU*mC*dT*dG*dC*dT*dG*dC*dC*dA*dA*dG*mC*mC*mC*mC*mA; antisense) [[LINC-PINT]94]” is higher in “cGAS-100 nM: averaged IP-10 levels relative to ISD70” value: 103.79% for the first, 104.33% for the second.
